Among the data in patent publication US6531471B2, “Morpholinone and morpholine derivatives and uses thereof” (Synaptic Pharmaceutical Corporation, priority 1998, dated 2003) are melting point and Ki values, retold here.

For series [1], the target named is T1, human α1d receptor (Homo sapiens, UniProt P25100).
T1 construct: host or cells: LM(tk−) cells, membrane preparation
T1 sequence (P25100 1-572): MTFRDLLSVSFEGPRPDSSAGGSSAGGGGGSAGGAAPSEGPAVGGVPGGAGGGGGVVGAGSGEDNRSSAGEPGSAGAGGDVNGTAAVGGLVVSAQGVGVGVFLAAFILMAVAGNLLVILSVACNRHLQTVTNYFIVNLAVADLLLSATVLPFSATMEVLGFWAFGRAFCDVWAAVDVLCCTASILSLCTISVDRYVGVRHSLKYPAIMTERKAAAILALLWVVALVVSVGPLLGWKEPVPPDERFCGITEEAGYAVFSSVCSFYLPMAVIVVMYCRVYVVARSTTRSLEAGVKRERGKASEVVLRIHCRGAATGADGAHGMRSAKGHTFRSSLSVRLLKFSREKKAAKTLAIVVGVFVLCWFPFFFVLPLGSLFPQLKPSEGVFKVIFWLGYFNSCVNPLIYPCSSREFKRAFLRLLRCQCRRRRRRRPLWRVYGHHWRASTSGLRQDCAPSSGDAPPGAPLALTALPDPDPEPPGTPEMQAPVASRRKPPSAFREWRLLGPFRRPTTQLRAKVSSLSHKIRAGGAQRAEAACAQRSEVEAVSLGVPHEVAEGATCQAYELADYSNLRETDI
As to the kind of experiment: Radioligand binding assay at cloned human α1d adrenergic receptor. Particulars: [3H]prazosin 0.5 nM, membrane preparations of transfected LM(tk−) cells, read-out: hα1d Ki. The procedure: (§1) These cell lines were prepared by transfecting the cloned cDNA or cloned genomic DNA or constructs containing both genomic DNA and cDNA encoding the human α-adrenergic receptors as follows:
The cells were grown, in a controlled environment (37° C., 5% CO2), as monolayers in Dulbecco's modified Eagle's Medium (GIBCO, Grand Island, N.Y.) containing 25 mM glucose and supplemented with 10% bovine calf serum, 100 units/ml penicillin g, and 100 μg/ml streptomycin sulfate.
(§2) Radioligand Binding Assays for α1 receptors: Transfected cells from culture flasks were scraped into 5 ml of 5 mM Tris-HCl, 5 mM EDTA, pH 7.5, and lysed by sonication. The cell lysates were centrifuged at 1000 rpm for 5 min at 4° C., and the supernatant was centrifuged at 30,000×g for 20 min at 4° C. The pellet was suspended in 50 mM Tris-HCl, 1 mM MgCl2, and 0.1% ascorbic acid at pH 7.5. Binding of the α1 antagonist [^3H]prazosin (0.5 nM, specific activity 76.2 Ci/mmol) to membrane preparations of LM(tk−) cells was done in a final volume of 0.25 ml and incubated at 37° C. for 20 min. Nonspecific binding was determined in the presence of […] phentolamine. The reaction was stopped by filtration through GF/B filters using a cell harvester.

Series [2] deals with T2, human α1b receptor (Homo sapiens, UniProt P35368).
T2 construct: host or cells: LM(tk−) cells, membrane preparation
T2 sequence (P35368 1-520): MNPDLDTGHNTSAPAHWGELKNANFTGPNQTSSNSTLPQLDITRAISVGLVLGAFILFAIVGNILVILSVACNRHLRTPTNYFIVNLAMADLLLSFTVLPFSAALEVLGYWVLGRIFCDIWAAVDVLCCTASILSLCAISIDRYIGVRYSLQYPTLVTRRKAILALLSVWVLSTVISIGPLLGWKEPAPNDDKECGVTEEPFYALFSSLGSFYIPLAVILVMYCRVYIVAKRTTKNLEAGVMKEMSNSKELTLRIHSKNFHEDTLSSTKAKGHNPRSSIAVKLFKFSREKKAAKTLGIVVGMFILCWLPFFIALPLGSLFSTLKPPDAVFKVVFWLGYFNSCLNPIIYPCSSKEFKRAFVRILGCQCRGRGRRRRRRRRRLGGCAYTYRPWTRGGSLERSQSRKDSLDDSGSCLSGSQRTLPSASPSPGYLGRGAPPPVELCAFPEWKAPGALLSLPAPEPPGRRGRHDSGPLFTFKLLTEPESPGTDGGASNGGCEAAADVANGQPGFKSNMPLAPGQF
As to the kind of experiment: Radioligand binding assay at cloned human α1b adrenergic receptor. The following applies: [3H]prazosin 0.5 nM, membrane preparations of transfected LM(tk−) cells, read-out: hα1b Ki. The procedure: as §1
The construct involved ligating the full-length containing EcoRI brainstem cDNA fragment from λ ZapII into the expression vector. Stable cell lines were selected as described above.
as §2

For series [3], the target named is T3, human α1a receptor (Homo sapiens, UniProt P35348).
T3 construct: host or cells: LM(tk−) cells, membrane preparation
T3 sequence (P35348 1-466): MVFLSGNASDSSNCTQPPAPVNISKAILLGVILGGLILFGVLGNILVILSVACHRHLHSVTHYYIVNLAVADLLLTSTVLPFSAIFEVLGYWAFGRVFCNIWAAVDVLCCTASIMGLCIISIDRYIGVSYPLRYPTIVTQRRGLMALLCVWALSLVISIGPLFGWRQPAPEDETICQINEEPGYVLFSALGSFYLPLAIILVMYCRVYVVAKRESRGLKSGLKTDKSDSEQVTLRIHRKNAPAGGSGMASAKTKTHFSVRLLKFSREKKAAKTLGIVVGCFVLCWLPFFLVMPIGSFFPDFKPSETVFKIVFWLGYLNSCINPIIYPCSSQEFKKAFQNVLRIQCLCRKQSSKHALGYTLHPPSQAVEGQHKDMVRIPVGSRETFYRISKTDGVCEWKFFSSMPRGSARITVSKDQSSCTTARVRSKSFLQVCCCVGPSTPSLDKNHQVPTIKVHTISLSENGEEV
As to the kind of experiment: Radioligand binding assay at cloned human α1a adrenergic receptor. The following applies: [3H]prazosin 0.5 nM, membrane preparations of transfected LM(tk−) cells, read-out: hα1a Ki. The procedure:
as §1
The construct involved ligating three partial overlapping fragments: a 5′ 0.6 kb HincII genomic clone, a central 1.8 EcoRI hippocampal cDNA clone, and a 3′ 0.6Kb PstI genomic clone. The hippocampal cDNA fragment overlaps with the 5′ and 3′ genomic clones so that the HincII and PstI sites at the 5′ and 3′ ends of the cDNA clone, respectively, were utilized for ligation. This full-length clone was cloned into the KpnI site of the expression vector, using the 5′ and 3′ KpnI sites of the fragment, derived from vector (i.e., pBluescript) and 3′-untranslated sequences, respectively. Stable cell lines were selected as described above.
as §2

Where a name gives a salt, the structure may show the parent alone.

The term melting point denotes the temperature, or range, at which the solid turns liquid. `COc1ccc(F)cc1C1(c2ccccc2)CCN(CCCNC(=O)N2C(=O)COCC2c2ccc(F)c(F)c2)CC1` (single isomer, unassigned; (+)) (as salt: HCl) [Compound 1, (+)-3-(3,4-Difluorophenyl)-5-oxo-morpholine-4-carboxylic acid-{3-[4-(5-fluoro-2-methoxyphenyl)-4-phenyl-piperidin-1-yl}-propyl}-amide]: the melting point lay in the range of 110 to 113 °C.
By Ki is commonly meant a measure of affinity in units of concentration, obtained from inhibition or displacement. The compound `CC1OCC(=O)N(C(=O)NCCCN2CCC(C#N)(c3ccccc3)CC2)C1c1ccc(F)c(F)c1` (single isomer, unassigned; (+)) [Compound 14] came in with a melting point of 191 to 194 °C. For the same compound, the inhibition constant (Ki) in series [1] was 4200 nM. Moreover, in series [2], the Ki was 1460 nM. The Ki in series [3] was found to be 2.6 nM.
In the case of `N#CC1(c2ccccc2)CCC(NCCNC(=O)N2C(=O)COCC2c2ccc(F)c(F)c2)CC1` (centres unmarked) [Compound 7], the inhibitory constant (Ki) in series [1] was found to be 204 nM; in series [2] it was 246 nM; in series [3] it was 12.6 nM.
In the same order, the values of `COc1ccc(F)cc1C1(c2ccccc2)CCN(CCCNC(=O)N2C(=O)COCC2c2ccc(F)c(F)c2)CC1` (single isomer, unassigned; (+)) [Compound 1, (+)-3-(3,4-Difluorophenyl)-5-oxo-morpholine-4-carboxylic acid-{3-[4-(5-fluoro-2-methoxyphenyl)-4-phenyl-piperidin-1-yl}-propyl}-amide] are 307 nM, 244 nM and 1.6 nM.
Consider `CC1(C)OCC(=O)N(C(=O)NCCCN2CCC(c3ccccn3)CC2)C1c1ccc(F)c(F)c1` (centres unmarked) [Compound 17, N-4-[3-{4-(2-pyridyl}piperidino)propyl]-3-(3,4-difluorophenyl)-2,2-dimethyl-5-oxo-4-morpholinecarboxamide hydrochloride], for which the inhibition constant Ki in series [1] is 580 nM; in series [2] it was 464 nM; in series [3], 3.8 nM.
The corresponding values for `NC(=O)c1ccccc1N1CCN(CCCNC(=O)N2C(=O)COCC2c2ccc(F)c(F)c2)CC1` (centres unmarked) [Compound 4, 3-(3,4-Difluoro-phenyl)-5-oxo-morpholine-4-carboxylic acid-{3-[4-(2-carboxamido)-phenyl-piperiazin-1-yl]-propyl}-amide] are 3160 nM, 3630 nM and 32 nM.
